According to patent US6838414B2, “Substituted aryl sulphonyl(thio)ureas used as herbicides” (Bayer Aktiengesellschaft, priority 1996, dated 2005):

Tests used:
Format in all cases: in vivo
Chenopodium = assay: Pre-emergence test/greenhouse; conditions: after three weeks
Procedure: (§1) To produce a suitable preparation of active compound, 1 part by weight of active compound is mixed with the stated amount of solvent, the stated amount of emulsifier is added and the concentrate is diluted with water to the desired concentration.
(§2) Seeds of the test plants are sown in normal soil. After about 24 hours, the soil is sprayed with the preparation of the active compound. Advantageously, the amount of water per unit area is kept constant. The active compound concentration in the preparation is not important, only the active compound application rate per unit area is critical.
(§3) After three weeks, the degree of damage to the plants is rated in % damage in comparison with the development of the untreated control.
(§4) The figures denote: • 0%=no effect (like untreated control) • 100%=total destruction

Alopecurus [1] = assay: Pre-emergence test/greenhouse; conditions: after three weeks
Procedure: as §1, §2, §3, §4

Stellaria = assay: Pre-emergence test/greenhouse; conditions: after three weeks
Procedure: as §1, §2, §3, §4

Amaranthus = assay: Pre-emergence test/greenhouse; conditions: after three weeks
Procedure: as §1, §2, §3, §4

Sorghum = assay: Pre-emergence test/greenhouse; conditions: after three weeks
Procedure: as §1, §2, §3, §4

weeds [2] = assay: Pre-emergence test (overall statement); conditions: application rates between 30 g and 125 g of a.i. per hectare
Procedure: as §1, §2, §3, §4

Echinochloa = assay: Post-emergence test/greenhouse; conditions: rated after three weeks vs untreated control
Procedure: as §1
(§5) Test plants which have a height of 5-15 cm are sprayed with the preparation of the active compound in such a way as to apply the particular amounts of active compound desired per unit area. The concentration of the spray liquor is chosen so that the amounts of active compound desired in each case are applied in 1000 l of water/ha.
as §3, §4

Matricaria = assay: Post-emergence test/greenhouse; conditions: rated after three weeks vs untreated control
Procedure: as §1, §5, §3, §4

Abutilon = assay: Post-emergence test/greenhouse; conditions: rated after three weeks vs untreated control
Procedure: as §1, §5, §3, §4

Alopecurus [3] = assay: Post-emergence test/greenhouse; conditions: rated after three weeks vs untreated control
Procedure: as §1, §5, §3, §4

weeds [4] = assay: Post-emergence test/greenhouse
Procedure: as §1, §5, §3, §4

Lolium = assay: Pre-emergence test/greenhouse; conditions: after three weeks
Procedure: as §1, §2, §3, §4

[5] = application rate 30 g of ai./ha
[6] = application rate 60 g of ai./ha
[7] = application rate 125 g of ai./ha

COc1cc(OC)nc(NC(=O)NS(=O)(=O)c2c(OC)cccc2C(F)(F)F)n1 [Example 22]
Chenopodium, % damage (Chenopodium; 30 g of ai./ha): 100% | Alopecurus, % damage (Alopecurus [1]; 30 g of ai./ha): 100% | Steltaria, % damage (Stellaria; 30 g of ai./ha): 100% | Amaranthus, % damage (Amaranthus; 30 g of ai./ha): 100% | Sorghum, % damage (Sorghum; 30 g of ai./ha): 95% | activity against weeds (weeds [2]): very strong activity against weeds | degree of damage to the plants, Echinochloa (Echinochloa; [5]): 80% | degree of damage to the plants, Matricaria (Matricaria; [5]): 95% | degree of damage to the plants, Abutilon (Abutilon; [5]): 95% | degree of damage to the plants, Alopecurus (Alopecurus [3]; [5]): 60% | activity against weeds (weeds [4]): very strong activity against weeds

CCOc1cccc(C(F)(F)F)c1S(=O)(=O)NC(=O)Nc1nc(OC)cc(OC)n1 [Example 23]
degree of damage to the plants, Echinochloa (Echinochloa; [5]): 70% | degree of damage to the plants, Matricaria (Matricaria; [5]): 95% | degree of damage to the plants, Abutilon (Abutilon; [5]): 95% | degree of damage to the plants, Alopecurus (Alopecurus [3]; [5]): 60% | activity against weeds (weeds [4]): very strong activity against weeds

CCCOc1cccc(C(F)(F)F)c1S(=O)(=O)NC(=O)Nc1nc(OC)cc(OC)n1 [Example 24]
degree of damage to the plants, Echinochloa (Echinochloa; [5]): 70% | degree of damage to the plants, Matricaria (Matricaria; [5]): 95% | degree of damage to the plants, Abutilon (Abutilon; [5]): 95% | degree of damage to the plants, Alopecurus (Alopecurus [3]; [5]): 60% | activity against weeds (weeds [4]): very strong activity against weeds

COc1cc(OC)nc(NC(=O)NS(=O)(=O)c2c(OC(C)C)cccc2C(F)(F)F)n1 [Example 25]
degree of damage to the plants, Echinochloa (Echinochloa; [5]): 70% | degree of damage to the plants, Matricaria (Matricaria; [5]): 90% | degree of damage to the plants, Abutilon (Abutilon; [5]): 95% | degree of damage to the plants, Alopecurus (Alopecurus [3]; [5]): 60% | activity against weeds (weeds [4]): very strong activity against weeds

COc1cc(C)nc(NC(=O)NS(=O)(=O)c2c(C)cccc2OC(C)C)n1 [Example 33]
Chenopodium, % damage (Chenopodium; 30 g of ai./ha): 70% | Alopecurus, % damage (Alopecurus [1]; 30 g of ai./ha): 100% | Lolium, % damage (Lolium; 30 g of ai./ha): 95% | Steltaria, % damage (Stellaria; 30 g of ai./ha): 90% | Sorghum, % damage (Sorghum; 30 g of ai./ha): 100% | activity against weeds (weeds [2]): very strong activity against weeds

C#CCOc1cccc(C)c1S(=O)(=O)NC(=O)Nc1nc(OC)cc(OC)n1 [Example 34]
Chenopodium, % damage (Chenopodium; 30 g of ai./ha): 90% | Alopecurus, % damage (Alopecurus [1]; 30 g of ai./ha): 100% | Steltaria, % damage (Stellaria; 30 g of ai./ha): 90% | Sorghum, % damage (Sorghum; 30 g of ai./ha): 90% | activity against weeds (weeds [2]): very strong activity against weeds | degree of damage to the plants, Echinochloa (Echinochloa; [5]): 80% | degree of damage to the plants, Matricaria (Matricaria; [5]): 90% | degree of damage to the plants, Abutilon (Abutilon; [5]): 90% | degree of damage to the plants, Alopecurus (Alopecurus [3]; [5]): 60% | activity against weeds (weeds [4]): very strong activity against weeds

CCCOc1cccc(C)c1S(=O)(=O)NC(=O)Nc1nc(C)cc(OC)n1 [Example 46]
Chenopodium, % damage (Chenopodium; 60 g of ai./ha): 100% | Alopecurus, % damage (Alopecurus [1]; 60 g of ai./ha): 100% | Lolium, % damage (Lolium; 60 g of ai./ha): 90% | Steltaria, % damage (Stellaria; 60 g of ai./ha): 80% | Amaranthus, % damage (Amaranthus; 60 g of ai./ha): 90% | Sorghum, % damage (Sorghum; 60 g of ai./ha): 100% | activity against weeds (weeds [2]): very strong activity against weeds

CCOc1cccc(C(C)C)c1S(=O)(=O)NC(=O)Nc1nc(OC)nc(OC)n1 [Example 51]
degree of damage to the plants, Echinochloa (Echinochloa; [6]): 90% | degree of damage to the plants, Matricaria (Matricaria; [6]): 90% | degree of damage to the plants, Abutilon (Abutilon; [6]): 100% | degree of damage to the plants, Alopecurus (Alopecurus [3]; [6]): 80% | activity against weeds (weeds [4]): very strong activity against weeds

COc1nc(C)nc(NC(=O)NS(=O)(=O)c2c(C)cccc2OC2CCCC2)n1 [Example 56]
Chenopodium, % damage (Chenopodium; 60 g of ai./ha): 100% | Alopecurus, % damage (Alopecurus [1]; 60 g of ai./ha): 100% | Lolium, % damage (Lolium; 60 g of ai./ha): 100% | Steltaria, % damage (Stellaria; 60 g of ai./ha): 100% | Amaranthus, % damage (Amaranthus; 60 g of ai./ha): 100% | Sorghum, % damage (Sorghum; 60 g of ai./ha): 90% | activity against weeds (weeds [2]): very strong activity against weeds

COc1cc(OC)nc(NC(=O)NS(=O)(=O)c2c(C)cccc2OC(F)F)n1 [Example 65]
Chenopodium, % damage (Chenopodium; 125 g of ai./ha): 95% | Alopecurus, % damage (Alopecurus [1]; 125 g of ai./ha): 95% | Lolium, % damage (Lolium; 125 g of ai./ha): 70% | Steltaria, % damage (Stellaria; 125 g of ai./ha): 95% | Amaranthus, % damage (Amaranthus; 125 g of ai./ha): 95% | activity against weeds (weeds [2]): very strong activity against weeds | degree of damage to the plants, Echinochloa (Echinochloa; [7]): 90% | degree of damage to the plants, Matricaria (Matricaria; [7]): 100% | degree of damage to the plants, Abutilon (Abutilon; [7]): 100% | degree of damage to the plants, Alopecurus (Alopecurus [3]; [7]): 90% | activity against weeds (weeds [4]): very strong activity against weeds
